The test system of series [1] is ZIKV MR766. The experiment in a line: Antiviral assay against ZIKV in SH-SY5Y cells (CPE, MTS readout). It counts as cell-based, zika virus. The note with it: for EC50: Zika virus, 168 h, SH-SY5Y cells, ZIKV MR766, MOI 0.01, 7-day incubation. Here is the method: (§1) These compounds were next evaluated for their antiviral effect on ZIKV replication in Vero E6 and SH-SY5Y cells. 7-Deaza-2′-C-methyladenosine (7DMA), a viral polymerase inhibitor,[35] was included as a positive control.
Besides the standard assays in VeroE6 cells, the compounds were also tested in SH-SY5Y cells. […] Thus, they function as a relevant neuronal cell-based model of ZIKV infection.[38]
(§2) Assessment of the antiviral activity against ZIKV in VeroE6 cells (African green monkey kidney cells; Vero 76, clone E6; ATCC: Cat# CRL-1586) was done as previously described.[35] The antiviral assays in the neuroblastoma SH-SY5Y cells (CRL-2266; ATCC) were conducted as follows: SH-SY5Y cells were seeded in assay medium (MEM supplemented with 2% fetal bovine serum, 2 mM L-glutamine and 0.075% sodium bicarbonate; all from Thermo Fisher Scientific) at a density of 15 000 cells/well in 96-well plates. Cells were incubated overnight at 37 °C and 5% CO2. The next day, a serial dilution of the compounds was added to the cells, followed by inoculation of the cells with ZIKV MR766 (MOI = 0.01). Following a 7-day incubation at 37 °C and 5% CO2, ZIKV-induced cytopathic effect was determined by means of the MTS readout method, analogous to the assay with the VeroE6 cells.[35] The 50% effective concentration (the compound concentration that is required to inhibit virus-induced CPE by 50%; EC50) and the 50% cytotoxic concentration (i.e. the compound concentration that is required to inhibit the cell growth by 50%; CC50) was determined using logarithmic interpolation.

Series [2] is described as follows: Cytotoxicity in non-infected SH-SY5Y cells. The class given is cell-based. The conditions noted are these: human, SH-SY5Y neuroblastoma cells, 50% cytotoxic concentration. As to the method: as §2
Series [3] can be described thus: Stability towards spontaneous cyclization in PBS : DMSO followed by HPLC. The class given is physicochemical. The note with it: PBS : DMSO (95 : 5), HPLC over a 24-hour period. Here is the method: Then, compound 28 was treated with TFA at 70 °C to remove the tert-butyl ester and the p-methoxybenzyl group. Analysis of the reaction by HPLC/MS after 1 h indicated a mixture of two compounds with m/z = 695 and m/z = 575, that might correspond to cyclized products with and without the p-methoxybenzyl group at position 6 (see Fig. S3 at the SI). […] In exploring alternative methods for removing the PMB group, we came across a report by Sako et al., which described the oxidative debenzylation of 6-N-benzyladenosines under neutral pH conditions.[32] Since our compounds are more lipophilic than the nucleosides described by […], we changed the PBS : CH3CN ratio from 2 : 1, as described, to 1 : 1 to favor the solubility of our compounds. Additionally, we used microwave irradiation to shorten the reaction times. Thus, treatment of 27 with […] in PBS : CH3CN (1 : 1) at 80 °C for 45 min under MW irradiation led to the removal of the p-methoxybenzyl group, as detected by HPLC/MS. Further treatment of the reaction product with piperidine afforded 29 (25% yield over the 2 steps). A similar reaction sequence applied to 28 led to compound 30 (21% yield). […] Finally, treatment of 29 and 30 with TFA in DCM at rt afforded compounds 31 and 32 in 73% and 62% yields, respectively. To rule out the possibility of spontaneous cyclization following removal of both protecting groups from the amino acid, compounds 21, 31 and 32 were dissolved in a PBS : DMSO (95 : 5) mixture.

For series [4], the target named is T1, ZIKV MTase (Zika virus, UniProt A0A024B7W1).
T1 construct: the ZIKV NS5 MTase (aa 4-278) domain were synthesized (Genscript); His6 (N); made in house; host or cells: Escherichia coli T7 Express Iq
T1 sequence (A0A024B7W1 2524-2798): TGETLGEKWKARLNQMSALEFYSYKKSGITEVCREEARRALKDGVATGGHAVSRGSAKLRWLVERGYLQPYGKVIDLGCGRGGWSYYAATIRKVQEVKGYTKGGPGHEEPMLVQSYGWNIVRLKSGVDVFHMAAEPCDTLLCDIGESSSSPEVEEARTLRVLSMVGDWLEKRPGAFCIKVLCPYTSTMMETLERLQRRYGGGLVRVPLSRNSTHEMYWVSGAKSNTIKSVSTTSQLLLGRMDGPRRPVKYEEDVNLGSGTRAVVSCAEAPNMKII
The series is described as follows: Filter binding assay (FBA), ZIKV 2′-O-MTase activity. The class given is biochemical. The conditions noted are these: for inhibition at 50 µM: 2′-O-MTase activity, compound at 50 μM, read-out: Percentage of inhibition of ZIKV MTase; for Effect on 2′-O-MTase activity of ZIKV (in words): tested at 50 μM. As to the method:
(§3) The synthesized arylpurines were evaluated for their inhibitory activity against the 2′-O-MTase activity of ZIKV and DENV3 MTases by quantification of [^3H]-methyl transfer from the [^3H]-SAM on short synthetic capped RNA (GpppAC4), by using a filter binding assay (FBA).[13,33] The universal methyltransferase inhibitor sinefungin was included as a positive control (Table 1), whose IC50 value against ZIKV MTase has already been reported using a similar assay.[13] We assessed MTase inhibition by testing the synthesized compounds at a concentration of 50 μM.
(§4) Proteins were produced and purified as previously described.[13] Briefly, the coding sequence of ZIKV NS5 (aa 4-903) and the ZIKV NS5 MTase (aa 4-278) domain were synthesized (Genscript) based on the sequence of the ZIKV strain H/PF/2013 (GenBank accession no. KJ776791.2) and then cloned into a pQE30 (Qiagen) plasmid with an N-terminal His6 tag. The MTase domains (aa 4-278 and aa 1-264) were produced in Escherichia coli T7 Express Iq (New England BioLabs). Cells were grown in Terrific Broth at 37 °C until the optical density at 600 nm (OD600) reached 0.6. Protein expression was then induced by 0.5 mM IPTG (isopropyl-β-D-thiogalactopyranoside) at 17 °C overnight. Bacteria were harvested by centrifugation. The bacterial pellets from a 2-liter bacterial culture were resuspended in 100 ml lysis buffer (50 mM Tris–HCl [pH 8], 300 mM NaCl, 5% glycerol, 0.1% Triton, 10 μg per ml DNase I, 2 tablets of EDTA-free antiprotease cocktail [Roche], 0.25 mg per ml lysozyme). After 30 min of incubation at 4 °C, cells were sonicated and clarified by centrifugation prior to immobilized metal affinity chromatography (IMAC) purification on a 5-mL His prep column (GE Healthcare), with elution in 50 mM Tris–HCl, 300 mM NaCl, and 250 mM imidazole (pH 8.0). The eluted protein was then loaded on a 16/60 Superdex 200 (GE Healthcare) equilibrated in a mixture of 10 mM HEPES, 500 mM NaCl, glycerol 5%, and 1 mM dithiothreitol (DTT [pH 7.5]).
(§5) The FBA MTase assay was carried out in a reaction mixture [40 mM Tris–HCl (pH 8.0), 1 mM DTT, 1.9 μM SAM, and 0.1 μM ^3H-SAM (PerkinElmer)] in the presence of 0.7 μM GpppAC4 synthetic RNA and the MTase (500 nM), according to the method previously described.[39] Briefly, the MTase was first mixed with the compound suspended in DMSO (5% final DMSO) before the addition of RNA substrate and SAM and then incubated at 30 °C. Reactions mixtures were stopped after 30 min by their 10-fold dilution in ice-cold water. Samples were transferred to diethylaminoethyl (DEAE) filtermat (PerkinElmer) using a Filtermat Harvester (Packard Instruments). The RNA-retaining mats were washed twice with 10 mM ammonium formate pH 8.0, twice with water and once with ethanol. They were soaked with scintillation fluid (PerkinElmer), and ^3H-methyl transfer to the RNA substrates was determined using a Wallac MicroBeta TriLux liquid scintillation counter (PerkinElmer).

Series [5] concerns ZIKV. The series is described as follows: Antiviral assay against ZIKV in VeroE6 cells (CPE, MTS readout). The class given is cell-based, zika virus. The conditions noted are these: for EC50: concentration that protects 50% of the cells from virus-induced cytopathic effect; for Antiviral activity against ZIKV (in words): cell-based assay. As to the method:
as §1, §2
(In general: Damage to the host cells serves as the signal in cytopathic effect assays.)

For series [6], the target named is T2, DENV3 MTase (Dengue virus type 3, UniProt P27915).
T2 construct: the MTase activity is located at the N-terminal of the viral NS5 protein; made in house
T2 sequence (P27915 2492-2753): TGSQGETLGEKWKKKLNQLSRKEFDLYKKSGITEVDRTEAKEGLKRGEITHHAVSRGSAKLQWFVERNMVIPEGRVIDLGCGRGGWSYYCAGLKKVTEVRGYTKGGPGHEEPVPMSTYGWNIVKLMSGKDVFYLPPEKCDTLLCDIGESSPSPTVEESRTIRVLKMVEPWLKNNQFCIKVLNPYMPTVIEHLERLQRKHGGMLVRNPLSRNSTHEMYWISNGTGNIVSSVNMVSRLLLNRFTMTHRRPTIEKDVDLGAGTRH
The experiment in a line: Filter binding assay (FBA), DENV3 2′-O-MTase activity. The class given is biochemical. The conditions noted are these: for inhibition at 50 µM: 2′-O-MTase activity, compound at 50 μM, read-out: Percentage of inhibition of DENV3 MTase; for Effect on 2′-O-MTase activity of DENV3 (in words): tested at 50 μM. As to the method:
as §3, §4, §5

A short description of series [7]: Cytotoxicity in non-infected VeroE6 cells. The note with it: African green monkey, non-infected, 50% cytotoxic concentration. The class given is cell-based, African green monkey. As to the method:
as §2

The test system of series [8] is VeroE6 cells. The experiment in a line: Cytotoxicity in non-infected VeroE6 cells. It counts as cell-based, African green monkey. Here is the method: as §2
Series [9] concerns the target T2, DENV3 MTase. Further details: method as in PMID 28031359. The conditions noted are these: cited from earlier work.
Details of series [10]: method as in PMID 30170321. The conditions noted are these: cited from earlier work.
The target of series [11] is T1, ZIKV MTase. Set-up: method as in PMID 28031359. The conditions noted are these: cited from earlier work.
The mark [12] stands for this setting: Zika virus, Vero C1008, VeroE6 cells.

As usually defined, the EC50 is the midpoint of the concentration-response curve. A lower EC50 goes with a more potent agent. What is called CC50 is the concentration at which the toxic effect on the cells reaches its halfway point. Low readings indicate harm at low concentration, high ones better tolerance by the cells. What is called inhibition is the change of the read-out against control, counted positive when it falls. The IC50 is the concentration at which inhibition is half-maximal.

Entries after “also recorded” stand apart in the source; their conditions may differ.

On to `Nc1ncnc2c1ncn2-c1cccc(NC(=O)C[C@H](N)C(=O)O)c1` [Compound 31, N ^4-(3-(6-Amino-9H-purin-9-yl)phenyl)-L-asparagine], for which the EC50 in [1] and in series [5] (setting [12]) was over 100 µM each time. In series [2], this compound registered a CC50 at 7 days of over 100 µM. The “Stability (no spontaneous cyclization)” value in series [3] is on record as “remained intact”. Moreover, the inhibition at 50 µM in [4] and in series [6] was about 20% each time. Besides, the “Effect on 2′-O-MTase activity of ZIKV (in words)” value (“Effect … of ZIKV (in words)” below) in series [4] is given as “inhibited; also recorded: some inhibition”. For the same compound, the “Antiviral activity against ZIKV (in words)” value in series [5] is “no antiviral activity”. Besides, in series [6], the “Effect on 2′-O-MTase activity of DENV3 (in words)” value (“Effect … of DENV3 (in words)” for short) was “some inhibition”. In [7], the CC50 is over 100 µM.

On to `Cc1ncnc2c1ccn2-c1cccc(N(CC[C@H](N)C(N)=O)CCC(C)(C)C)c1` [Compound 18, (S)-2-Amino-4-((3,3-dimethylbutyl)(3-(4-methyl-7H-pyrrolo[2,3-d]pyrimidin-7-yl)phenyl)amino) butanamide], for which the EC50 is over 100 µM in [1], 27.2 ± 0.2 µM in series [5] (VeroE6 cells) and 27 µM in series [5] (setting [12]). The “Antiviral activity against ZIKV in SH-SY5Y cells (in words)” value in [1] (neuroblastoma SH-SY5Y cells) is recorded as “not confirmed”. The CC50 at 7 days in series [2] was 61 µM. Moreover, the inhibition at 50 µM in [4] stood at 10.8%; in series [6] it was 10.1%. In addition, the “Effect … of ZIKV (in words)” value in series [4] is on record as “inhibited; also recorded: modest inhibition”. The IC50 in series [5] (Zika virus, Vero C1008, Vero E6 cells, read-out: IC50 (antiviral activity in cell culture)) is 27.2 ± 0.2 µM. Further, in series [5], the “Antiviral activity against ZIKV (in words)” value is listed as “modest antiviral activity”. Also, the “Effect … of DENV3 (in words)” value in series [6] is “modest inhibition”. Further, half-maximal cytotoxicity in series [7] (CC50) was put at 66.2 ± 3.9 µM. Further, the “CC50 relative to EC50 (fold higher)” value in [8] is recorded as about 3 fold.

The compound `COc1ccc(NC(=O)C[C@H](N)C(=O)O)cc1-n1cnc2c(N)ncnc21` [Compound 32, N ^4-(3-(6-Amino-9H-purin-9-yl)-4-methoxyphenyl)-L-asparagine] had an EC50 in series [1] of over 100 µM. Also, the CC50 at 7 days in series [2] was over 100 µM. For the same compound, in series [3], the “Stability (no spontaneous cyclization)” value was “remained intact”. For the same compound, in [4], the inhibition at 50 µM is 0% and the “Effect … of ZIKV (in words)” value was “no effect”. The compound further came in with an EC50 in [5] (setting [12]) of over 100 µM. In addition, in [6], the inhibition at 50 µM worked out at 0% and the “Effect … of DENV3 (in words)” value is “no effect”. In series [7], the CC50 is over 100 µM.

For the compound `Nc1ncnc2c1ncn2[C@@H]1O[C@H](C[C@@H](N)CC[C@H](N)C(=O)O)[C@@H](O)[C@H]1O` [Sinefungin], the “DENV MTase inhibition (in words)” value in series [9] is reported as “potent”. For the same compound, in series [10], the “Antiviral activity in cell culture (in words)” value is listed as “lack of antiviral activity”. Also, the inhibition at 50 µM amounted to 97.9% in [4] and 96.8% in series [6]. The “ZIKV MTase inhibition (in words)” value in series [11] is given as “potent”.
